{
  "source": "patent US20220145260A1",
  "about": "“METHOD FOR CULTURING HEPATIC EPITHELIOID TISSUE HAVING A STRUCTURE OF CONNECTIONS BETWEEN HEPATOCYTES AND BILE DUCT EPITHELIAL CELL” (SAPPORO MEDICAL UNIVERSITY, priority 2019, published 2022)",
  "key": {"[1]": {"system": "hepatic epithelioid tissue (small hepatocytes and bile duct epithelial cells)", "test": "Fluorescein diacetate uptake and flow into bile duct in hepatic epithelioid tissue", "format": "cell-based, mice", "conditions": "hepatic epithelioid tissue 2 weeks after overlaying Matrigel; fluorescence microscopy", "procedure": "After 4 mg/ml of a type I collagen solution was prepared, it was added to wells of a pre-cooled culture plate (manufactured by Greiner Bio-One Co., Ltd.), followed by allowing to stand at 37° C. for 30 to 60 minutes to be gelatinized. Bile duct epithelial cells suspended in a DMEM/F12 medium (manufactured by Sigma Aldrich Co. LLC) containing 10% serum (fetal bovine serum), 1×insulin-transferrin-selenium (ITS), 0.1 μM dexamethasone, 5 ng/ml epidermal growth factor (EGF), and 5 ng/ml hepatocyte growth factor (HGF) were inoculated in a 24-well plate at 5×10^4 cells/well. […] The density in the cultured region of the bile duct epithelial cells in the cultured region was measured with image analysis software (manufactured by Olympus Corporation) by using photographs taken under a microscope. […]\nFluorescein diacetate (FDA) (manufactured by Tokyo Chemical Industry Co., Ltd.) was taken up by the above-mentioned hepatic epithelioid tissue 2 weeks after overlaying Matrigel, and observation was performed with a phase-contrast microscope and a fluorescence microscope. […] FDA is taken by hepatocytes and hydrolyzed to become fluorescein that emits a fluorescence, and then is excreted into the bile canaliculus."}, "[2]": {"system": "hepatic epithelioid tissue (small hepatocytes and bile duct epithelial cells)", "test": "Uptake of bilirubin by the hepatic epithelioid tissue reconstructed ex vivo", "format": "cell-based, mice", "conditions": "10 μg/ml bilirubin, 3 to 5 days culture; tissue 2 weeks after overlaying Matrigel; Fouchet's reagent staining"}, "[3]": {"system": "barrier functions of the epithelial cells in the organoid", "test": "Release of CLF into the medium by inhibition of cell-cell adhesion (tight junction barrier) with MβCD", "format": "cell-based, mice"}, "[4]": {"system": "hepatic epithelioid tissue (small hepatocytes and bile duct epithelial cells)", "test": "Transportation of bile acid analog CLF from hepatocytes to the bile duct", "format": "cell-based, mice", "conditions": "after 6 hours; 1 month after overlaying gel"}, "[5]": {"system": "coculture of human CLiP and murine bile duct epithelial cells", "test": "CLF transport in coculture of human reprogramming hepatocytes (hCLiP) and murine BEC", "format": "cell-based", "conditions": "one week after overlaying collagen gel containing 40% Matrigel", "procedure": "In order to produce an organoid reflecting the metabolic functions of humans, coculture of human reprogramming hepatocytes and murine bile duct epithelial cells was performed. Specifically, murine bile duct epithelial cells were cultured on a collagen gel (the amount of collagen contained in the collagen gel: 4 mg/ml) for 5 days, and then CLIP was inoculated. Two days later, human recombinant oncostatin M (hOSM) (manufactured by R&D Systems Inc.) was added, and then 1 day later, a collagen gel containing 40% EHSgel (Matrigel) was overlaid to perform coculture.\n(A) It can be seen that the contact surface between murine BEC (the range indicated in red) and human CLIP has been formed during the early stage of coculture (see FIG. 10A). (B) One week after overlaying a collagen gel containing EHSgel (Matrigel), CLF was added."}},
  "data": [
    {"molecule": "CC(=O)Oc1ccc2c(c1)Oc1cc(OC(C)=O)ccc1C21OC(=O)c2ccccc21", "note": "[Fluorescein diacetate]", "values": [
      {"measurement": "flow of fluorescein (from FDA hydrolysed in hepatocytes) into the bile duct", "setting": "[1]", "value": "fluorescein has flowed into the bile duct"}
    ]},
    {"molecule": "C=CC1=C(C)/C(=C/c2[nH]c(Cc3[nH]c(/C=C4\\NC(=O)C(C)=C4C=C)c(C)c3CCC(=O)O)c(CCC(=O)O)c2C)NC1=O", "note": "[bilirubin]", "values": [
      {"measurement": "flow of bilirubin taken up by hepatocytes into bile duct structure", "setting": "[2]", "value": "flows into a bile duct structure formed by bile duct epithelial cells"}
    ]},
    {"molecule": "Methyl beta cyclodextrin [MβCD]", "values": [
      {"measurement": "concentration dependence of CLF release into the medium", "setting": "[3]; 25 mM or 75 mM MβCD", "value": "release depends on the concentration of MβCD"},
      {"measurement": "CLF fluorescence leaked into the medium after MβCD addition", "setting": "[3]; 25 mM or 75 mM MβCD vs no addition, cells 1 month after addition of EHS-gel", "value": "fluorescence was detected in the medium"}
    ]},
    {"molecule": "cholyl lysine fluorescein [CLF]", "values": [
      {"measurement": "transport to the bile duct", "setting": "[4]", "value": "transported to the bile duct"},
      {"measurement": "transport of CLF taken up by human CLiP to murine bile duct tissue", "setting": "[5]", "value": "transported to a murine bile duct tissue"}
    ]}
  ]
}
